The target in one assay is cruzain (Trypanosoma cruzi, UniProt P25779). Description: biochemical. The conditions noted are these: 0’ (no pre-incubation); sheet Screening results. The essentials: (§1)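 Recombinant enzymes assayed by Z-Phe-Arg-AMC cleavage at 25 °C, fluorescence 340/440 nm over 5–7 min, with 10 min or no enzyme–compound preincubation.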
Chain of cruzain (P25779 123-337 limits assumed): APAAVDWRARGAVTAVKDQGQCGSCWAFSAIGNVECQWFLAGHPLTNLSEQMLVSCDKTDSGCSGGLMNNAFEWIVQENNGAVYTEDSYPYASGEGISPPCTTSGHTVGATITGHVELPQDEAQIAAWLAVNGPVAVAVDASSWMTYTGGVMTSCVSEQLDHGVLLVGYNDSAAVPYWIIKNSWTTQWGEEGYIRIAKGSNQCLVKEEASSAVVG
T1 sequence (Q95PM0 entry or part of it): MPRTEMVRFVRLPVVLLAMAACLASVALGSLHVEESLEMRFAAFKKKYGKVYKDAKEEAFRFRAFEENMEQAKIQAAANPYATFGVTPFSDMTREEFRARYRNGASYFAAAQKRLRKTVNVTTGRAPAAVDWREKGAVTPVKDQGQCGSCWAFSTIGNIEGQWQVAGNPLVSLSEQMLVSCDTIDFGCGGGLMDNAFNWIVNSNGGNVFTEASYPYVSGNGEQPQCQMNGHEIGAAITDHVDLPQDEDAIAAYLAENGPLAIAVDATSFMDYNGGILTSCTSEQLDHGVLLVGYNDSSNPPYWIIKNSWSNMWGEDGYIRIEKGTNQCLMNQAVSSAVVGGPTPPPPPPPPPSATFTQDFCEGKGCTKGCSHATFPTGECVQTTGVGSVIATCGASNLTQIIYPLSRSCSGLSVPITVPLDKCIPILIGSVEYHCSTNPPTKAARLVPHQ
In the case of `O=C(Nc1nc(-c2ccccn2)cs1)C1CC1c1ccccc1F` (stereo not shown) [MMV1028806], the “Cruzain Inhibition 0’” value came to 24%.
On to `COc1cccn2c(C(=O)N3CCCCC3)c(C(F)(F)F)nc12` [MMV1110498], for which the “Cruzain Inhibition 0’” value came to 8%.

Still in this assay, the particulars now being: 0’ (pre-incubation time); Pathogen Box screening results.
On to `CCOC(=O)c1noc(N)c1-c1ccccc1` [MMV1236379], for which the “Cruzain Inhibition 0’” value was -8%.

Staying with this assay, now noted: 0’ (pre-incubation time); sheet "Screening results".
As to `COc1ccc(Oc2ccc([C@@H](C)N(C)c3ncc4c(N)nc(N)nc4n3)cc2)cc1` [MMV690102], the “Cruzain 0’ Inhibition” value came out at 0.4%.

The assay is the same for the next values; noted with them: 10’ (pre-incubation time); Pathogen Box screening results.
In the case of `CCOC(=O)c1noc(N)c1-c1ccccc1` [MMV1236379], the “Cruzain Inhibition 10’” value worked out at 7%.

The same assay, now with this note: 10’ (pre-incubation time); sheet "Screening results".
`COc1ccc(Oc2ccc([C@@H](C)N(C)c3ncc4c(N)nc(N)nc4n3)cc2)cc1` [MMV690102]: the “Cruzain 10’ Inhibition” value was found to be 12%.

The same assay, now with this note: 10’ (pre-incubation); sheet Screening results.
As to `O=C(Nc1nc(-c2ccccn2)cs1)C1CC1c1ccccc1F` (stereo not shown) [MMV1028806], the “Cruzain Inhibition 10’” value came out at 17%.
In the case of `COc1cccn2c(C(=O)N3CCCCC3)c(C(F)(F)F)nc12` [MMV1110498], the “Cruzain Inhibition 10’” value is reported as 9%.

The next assay has as its target T1, TbrCatL (Trypanosoma brucei rhodesiense, UniProt Q95PM0).
T1 construct: Conor Caffrey (University of California San Diego)
As to the kind of experiment: TbrCatL enzymatic inhibition assay (cleavage of fluorogenic substrate Z-FR-AMC). Type of assay: biochemical. The settings on record: 0’ (no pre-incubation); sheet Screening results. The essentials:
as §1
Regarding `O=C(Nc1nc(-c2ccccn2)cs1)C1CC1c1ccccc1F` (stereo not shown) [MMV1028806], the “TbrCatL Inhibition 0’” value came to 17%.
On the same count and under the same terms, the figure for `COc1cccn2c(C(=O)N3CCCCC3)c(C(F)(F)F)nc12` [MMV1110498] is 13%.

The assay is the same for the next values; noted with them: 0’ (pre-incubation time); Pathogen Box screening results.
Take `CCOC(=O)c1noc(N)c1-c1ccccc1` [MMV1236379]: the “TbrCatL Inhibition 0’” value is -9%.

The same assay, now with this note: 0’ (pre-incubation time); sheet "Screening results".
For the molecule `COc1ccc(Oc2ccc([C@@H](C)N(C)c3ncc4c(N)nc(N)nc4n3)cc2)cc1` [MMV690102], the “TbrCatL 0’ Inhibition” value is on record as -2.5%.

The assay is the same for the next values; noted with them: 10’ (pre-incubation time); Pathogen Box screening results.
As for `CCOC(=O)c1noc(N)c1-c1ccccc1` [MMV1236379], the “TbrCatL Inhibition 10’” value is reported as -1.7%.

Staying with this assay, now noted: 10’ (pre-incubation time); sheet "Screening results".
On to `COc1ccc(Oc2ccc([C@@H](C)N(C)c3ncc4c(N)nc(N)nc4n3)cc2)cc1` [MMV690102], for which the “TbrCatL 10’ Inhibition” value worked out at 14%.

Staying with this assay, now noted: 10’ (pre-incubation); sheet Screening results.
Take `O=C(Nc1nc(-c2ccccn2)cs1)C1CC1c1ccccc1F` (stereo not shown) [MMV1028806]: the “TbrCatL Inhibition 10’” value turned out to be 3.6%.
The same measure, in the same setting: the figure for `COc1cccn2c(C(=O)N3CCCCC3)c(C(F)(F)F)nc12` [MMV1110498] is 6.4%.

Source of the values: PMC9967275, “Screening the Pathogen Box to Discover and Characterize New Cruzain and TbrCatL Inhibitors” (Pathogens, 2023).
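Note: at 5 µM compound concentration.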
